ChEMBL document CHEMBL1137485, “Design, synthesis, and biological testing of pyrazoline derivatives of combretastatin-A4” (Bioorg Med Chem Lett, 2007)

Assays:
A10 [1] = assay: Reduction of microtubules in […] A10 cells; assay type: functional, cell-based; details: Rattus norvegicus
L1210 = assay: Cytotoxicity against mouse L1210 cells after 72 hrs by MTT assay; assay type: functional, cell-based; details: L1210, 72 h
B16 = assay: Cytotoxicity against mouse B16 cells after 72 hrs by MTT assay; assay type: functional, cell-based; details: B16, 72 h
A10 [2] = assay: Reduction of microtubules in human A10 cells at 40 uM; assay type: functional; set-up: scale not given: the % may be the effect or the level left

Row | Compound | EC50 (A10 [1]) [µM] | IC50 (L1210) [µM] | IC50 (B16) [µM] | Activity (A10 [2]) [%]
1 | COc1ccc(C2CC(c3cc(OC)c(OC)c(OC)c3)=NN2)cc1O (stereo not drawn) | 7.1 | 0.5 | 2.1 | 
2 | COc1ccc(C2CC(c3cc(OC)c(OC)c(OC)c3)=NN2)cc1OC (stereo not drawn) |  | 42 | 44 | 
3 | COc1cc(C2=NNC(c3cc(OC)c(OC)c(OC)c3)C2)cc(OC)c1OC (stereo not drawn) |  | 24 | 56 | 
4 | COc1ccccc1C1CC(c2cc(OC)c(OC)c(OC)c2)=NN1C(C)=O (stereo not drawn) |  | 43 | > 100 | 
5 | COc1ccc(C2CC(c3cc(OC)c(OC)c(OC)c3)=NN2C(C)=O)cc1[N+](=O)[O-] (stereo not drawn) |  | 52 | > 100 | 
6 | COc1cc(C2=NN(C(C)=O)C(c3ccc(Cl)cc3)C2)cc(OC)c1OC (stereo not drawn) |  | 30 | 35 | 
7 | COc1ccc(C2CC(c3cc(OC)c(OC)c(OC)c3)=NN2C(C)=O)cc1O (stereo not drawn) |  | > 100 | > 100 | 10
8 | COc1cccc(C2CC(c3cc(OC)c(OC)c(OC)c3)=NN2C(C)=O)c1 (stereo not drawn) |  | 44 | > 100 | 
9 | COc1ccc(OC)c(C2CC(c3cc(OC)c(OC)c(OC)c3)=NN2C(C)=O)c1 (stereo not drawn) |  | > 100 | > 100 | 
10 | COc1cc(C2=NN(C(C)=O)C(c3ccc([N+](=O)[O-])cc3)C2)cc(OC)c1OC (stereo not drawn) |  | 42 | 51 | 
11 | COc1cc(OC)c(C2CC(c3cc(OC)ccc3OC)=NN2C(C)=O)c(OC)c1 (stereo not drawn) |  | 33 | 69 | 
12 | COc1ccc(OC)c(C2=NN(C(C)=O)C(c3ccc(OC)c([N+](=O)[O-])c3)C2)c1 (stereo not drawn) |  | 40 | 58 | 
13 | COc1ccc(OC)c(C2=NN(C(C)=O)C(c3ccc(OC)c(OC)c3)C2)c1 (stereo not drawn) |  | 28 | 62 | 
